Among the test systems are MDA-MB-231 breast; NCI/ADR-RES ovarian; HS 578T breast; NCI-H460 lung; KM12 colon; SK-MEL-28 melanoma; NCI-H226 lung; A549 NSCLC; SK-MEL-2 melanoma; IGROV1 ovarian.
What all share (assay): NCI tumour cell line growth inhibition, 48 h

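Test compounds were applied to cells in 96-well plates for 48 hours at 5 doses. Here, GI50 denotes the concentration required for 50% inhibition of growth. TGI is the concentration that stops growth completely.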

In the case of `COC(=O)C1(N2CCOCC2)CCC([C@@H](c2ccccc2)C(C)[N+](=O)[O-])C1` (some centres undefined), the TGI in the assay on MDA-MB-231 breast, with NCI/ADR-RES ovarian, in the assay with HS 578T breast, with NCI-H460 lung, in the assay with KM12 colon and in the assay with SK-MEL-28 melanoma was more than 100 µM in each case. Besides, the TGI with NCI-H226 lung, in the assay on A549 NSCLC and with SK-MEL-2 melanoma was more than 100 µM each time.
Regarding `C=C1[C@H](O)C[C@@H](C(C)C(O)CC=C(C)C)[C@@H](O)[C@@H]2C(C)=CC[C@@H]12` (some centres undefined), the GI50 in the assay on MDA-MB-231 breast, with NCI/ADR-RES ovarian, in the assay on HS 578T breast, in the assay on NCI-H460 lung, in the assay on KM12 colon and with SK-MEL-28 melanoma was more than 100 µM each time. Further, the GI50 in the assay on IGROV1 ovarian, in the assay with NCI-H226 lung, in the assay with A549 NSCLC and with SK-MEL-2 melanoma was more than 100 µM in each case. Moreover, the TGI in the assay with MDA-MB-231 breast, in the assay with NCI/ADR-RES ovarian, in the assay on HS 578T breast, with NCI-H460 lung, with KM12 colon and in the assay on SK-MEL-28 melanoma was more than 100 µM in each case. Also, the TGI with IGROV1 ovarian, in the assay with NCI-H226 lung, in the assay with A549 NSCLC and in the assay with SK-MEL-2 melanoma was more than 100 µM in each case.
Regarding `COc1ccc(N2CCN(c3nc(-c4ccccn4)nc4sc5c(c34)CCCCCC5)CC2)cc1`, the GI50 was 49.6 µM in the assay with MDA-MB-231 breast; 4.77 µM in the assay with NCI/ADR-RES ovarian; 57.6 µM in the assay on HS 578T breast; 4.67 µM with NCI-H460 lung; 5.15 µM with KM12 colon; more than 100 µM in the assay with SK-MEL-28 melanoma. For the same molecule, the GI50 with IGROV1 ovarian is 5.34 µM; in the assay with NCI-H226 lung, 6.49 µM; in the assay with A549 NSCLC, 3.25 µM; with SK-MEL-2 melanoma, 18.3 µM. Also, the TGI in the assay on MDA-MB-231 breast, in the assay on NCI/ADR-RES ovarian, in the assay on HS 578T breast, in the assay on NCI-H460 lung, with KM12 colon and in the assay with SK-MEL-28 melanoma was more than 100 µM in each case. For the same molecule, the TGI in the assay with IGROV1 ovarian, in the assay with NCI-H226 lung, in the assay on A549 NSCLC and in the assay with SK-MEL-2 melanoma was more than 100 µM in each case.
Take `S=C1NC(c2ccccc2)NC(c2ccccc2)S1` (centres undefined): the TGI is more than 100 µM in the assay with MDA-MB-231 breast; more than 100 µM in the assay on NCI/ADR-RES ovarian; more than 100 µM in the assay with HS 578T breast; 63.3 µM in the assay on NCI-H460 lung; more than 100 µM in the assay with KM12 colon; more than 100 µM in the assay with SK-MEL-28 melanoma. Moreover, the TGI with IGROV1 ovarian, in the assay with NCI-H226 lung, with A549 NSCLC and in the assay with SK-MEL-2 melanoma was more than 100 µM each time.
In the case of `CS(=O)(=O)Nc1cc(-c2ccc3ncnc(Nc4ccc(OCc5ccccn5)c(Cl)c4)c3c2)cnc1Cl`, the GI50 was 0.313 µM with MDA-MB-231 breast; 7.07 µM in the assay on NCI/ADR-RES ovarian; 0.502 µM in the assay with NCI-H460 lung; 0.572 µM in the assay on KM12 colon; 0.256 µM in the assay on SK-MEL-28 melanoma; 0.0748 µM in the assay with IGROV1 ovarian. For the same molecule, the GI50 in the assay on NCI-H226 lung is 0.549 µM; in the assay on A549 NSCLC it was 1.09 µM; in the assay on SK-MEL-2 melanoma, 0.184 µM. Further, the TGI was 2.03 µM in the assay with MDA-MB-231 breast; more than 100 µM in the assay with NCI/ADR-RES ovarian; more than 100 µM in the assay on NCI-H460 lung; 2.18 µM in the assay with KM12 colon; 3.92 µM with SK-MEL-28 melanoma; 0.409 µM with IGROV1 ovarian. For the same molecule, the TGI in the assay on NCI-H226 lung was determined as 11 µM; in the assay with A549 NSCLC, 5.48 µM; with SK-MEL-2 melanoma, 0.739 µM.
As for `CCCCCCCN(CCCCCCC)C(=N)c1ccc(OC)c2ccccc12`, the GI50 with NCI/ADR-RES ovarian is 1.46 µM; in the assay with HS 578T breast, 1.56 µM; in the assay on SK-MEL-28 melanoma, 1.62 µM; in the assay with IGROV1 ovarian, 1.1 µM; in the assay with A549 NSCLC, 1.37 µM; in the assay on SK-MEL-2 melanoma it was 1.81 µM. For the same molecule, the TGI with NCI/ADR-RES ovarian worked out at 3.05 µM; in the assay on HS 578T breast, 3.53 µM; with SK-MEL-28 melanoma it was 3.17 µM; with IGROV1 ovarian, 2.7 µM; with A549 NSCLC it was 2.82 µM; in the assay on SK-MEL-2 melanoma it was 3.4 µM.
`COc1ccc(CC2OC3(CCCCC3)CC3CCCCN32)cc1` (centres undefined): the TGI in the assay on MDA-MB-231 breast, in the assay with NCI/ADR-RES ovarian, with HS 578T breast, with NCI-H460 lung, in the assay with KM12 colon and with SK-MEL-28 melanoma was more than 100 µM throughout. The TGI in the assay on IGROV1 ovarian, in the assay on NCI-H226 lung, with A549 NSCLC and in the assay with SK-MEL-2 melanoma was more than 100 µM throughout.
For `COc1ccc(COc2ccc(Cc3cnc(N)nc3N)cc2OC)cc1`, the GI50 with MDA-MB-231 breast was 23.1 µM; in the assay on NCI/ADR-RES ovarian, more than 19 µM; with HS 578T breast, more than 23.4 µM; with NCI-H460 lung, more than 22.1 µM; with KM12 colon it was 1.03 µM; with SK-MEL-28 melanoma it was 24.8 µM. In addition, the GI50 is more than 25 µM in the assay with IGROV1 ovarian, 16 µM with NCI-H226 lung, more than 23.4 µM in the assay with A549 NSCLC and more than 25 µM in the assay on SK-MEL-2 melanoma. Moreover, the TGI in the assay on MDA-MB-231 breast, in the assay with NCI/ADR-RES ovarian, with HS 578T breast, in the assay with NCI-H460 lung, with KM12 colon and in the assay with SK-MEL-28 melanoma was more than 25 µM each time. The TGI with IGROV1 ovarian, with NCI-H226 lung, in the assay on A549 NSCLC and in the assay with SK-MEL-2 melanoma was more than 25 µM in each case.
With `COc1cc2cc(C(=O)Nc3ccccc3)c(N)nc2cc1OC`, the GI50 is 59.6 µM with MDA-MB-231 breast; 28.4 µM in the assay on NCI/ADR-RES ovarian; 62.8 µM in the assay with HS 578T breast; 73.9 µM in the assay with NCI-H460 lung; 46 µM with KM12 colon; 75.4 µM with SK-MEL-28 melanoma. The GI50 in the assay on IGROV1 ovarian was 56.3 µM; in the assay with NCI-H226 lung, 54.4 µM; in the assay on A549 NSCLC, 63.1 µM; in the assay on SK-MEL-2 melanoma, 69.1 µM. Besides, the TGI in the assay with MDA-MB-231 breast, in the assay on NCI/ADR-RES ovarian, in the assay with HS 578T breast, with NCI-H460 lung, in the assay on KM12 colon and with SK-MEL-28 melanoma was more than 100 µM throughout. Further, the TGI in the assay on IGROV1 ovarian, in the assay on NCI-H226 lung, with A549 NSCLC and in the assay on SK-MEL-2 melanoma was more than 100 µM throughout.
